Measured values reported in patent publication EP4745135A1 (Gluetacs Therapeutics (Shanghai) Co., Ltd., priority 2023, dated 2025).

Assays:
[1] = system: Human multiple myeloma cell (MM.1S); assay: Tumor cell proliferation inhibition (CellTiter-Meiluncell luminescent cell viability assay); details: for inhibition at 0.01 µM / inhibition at 0.5 µM: Homo sapiens, MM1.S, 96 h; for inhibition at 0.01 µM: read-out: Inhibition Rate at 10 nM (%); for inhibition at 0.5 µM: read-out: Inhibition Rate at 500 nM (%)
[2] = target: T1, human Cereblon WT GST-tagged protein (Homo sapiens, UniProt Q96SW2); assay: CRBN-binding affinity, HTRF (CEREBLON BINDING kit); details: for inhibition at 0.5 µM: read-out: Inhibition Rate at 0.5 µM (%); for inhibition at 2 µM: read-out: Inhibition Rate at 2 µM (%)
T1 construct: purchased CISBIO 64BDCRBNPEH

[3] = target: T2, IKZF2 (Homo sapiens, UniProt Q96SW2+Q9UKS7); assay: Western blot, degradation of substrate protein in hPBMCs; type: cell-based; details: 24 hours treatment, compounds at 50 nM and 500 nM (concentration behind the class not stated)
T2 construct: effects of the compounds of the present disclosure on the expression of target proteins in cells; endogenous in cells; host or cells: human PBMCs (Milecell Biotechnologies)

[4] = target: T3, CK1α (Homo sapiens, UniProt P48729+Q96SW2); assay: as above; type: cell-based; details: 24 hours treatment, compounds at 50 nM and 500 nM (concentration behind the class not stated)
T3 construct: effects of the compounds of the present disclosure on the expression of target proteins in cells; endogenous in cells; host or cells: human PBMCs (Milecell Biotechnologies)

[5] = target: T4, IKZF1 (Homo sapiens, UniProt Q13422+Q96SW2); assay: as above; type: cell-based; details: 24 hours treatment, compounds at 50 nM and 500 nM (concentration behind the class not stated)
T4 construct: effects of the compounds of the present disclosure on the expression of target proteins in cells; endogenous in cells; host or cells: human PBMCs (Milecell Biotechnologies)

[6] = target: T5, IKZF3 (Homo sapiens, UniProt Q96SW2+Q9UKT9); assay: as above; type: cell-based; details: 24 hours treatment, compounds at 50 nM and 500 nM (concentration behind the class not stated)
T5 construct: effects of the compounds of the present disclosure on the expression of target proteins in cells; endogenous in cells; host or cells: human PBMCs (Milecell Biotechnologies)

[7] = target: T6, WEE1 (Homo sapiens, UniProt P30291+Q96SW2); assay: as above; type: cell-based; details: 24 hours treatment, compounds at 50 nM and 500 nM (concentration behind the class not stated)
T6 construct: effects of the compounds of the present disclosure on the expression of target proteins in cells; endogenous in cells; host or cells: human PBMCs (Milecell Biotechnologies)

[8] = system: GSPT1; assay: as above; type: cell-based, Human; details: 24 hours treatment, compounds at 50 nM and 500 nM (concentration behind the class not stated)

T6 sequence (P30291 whole entry): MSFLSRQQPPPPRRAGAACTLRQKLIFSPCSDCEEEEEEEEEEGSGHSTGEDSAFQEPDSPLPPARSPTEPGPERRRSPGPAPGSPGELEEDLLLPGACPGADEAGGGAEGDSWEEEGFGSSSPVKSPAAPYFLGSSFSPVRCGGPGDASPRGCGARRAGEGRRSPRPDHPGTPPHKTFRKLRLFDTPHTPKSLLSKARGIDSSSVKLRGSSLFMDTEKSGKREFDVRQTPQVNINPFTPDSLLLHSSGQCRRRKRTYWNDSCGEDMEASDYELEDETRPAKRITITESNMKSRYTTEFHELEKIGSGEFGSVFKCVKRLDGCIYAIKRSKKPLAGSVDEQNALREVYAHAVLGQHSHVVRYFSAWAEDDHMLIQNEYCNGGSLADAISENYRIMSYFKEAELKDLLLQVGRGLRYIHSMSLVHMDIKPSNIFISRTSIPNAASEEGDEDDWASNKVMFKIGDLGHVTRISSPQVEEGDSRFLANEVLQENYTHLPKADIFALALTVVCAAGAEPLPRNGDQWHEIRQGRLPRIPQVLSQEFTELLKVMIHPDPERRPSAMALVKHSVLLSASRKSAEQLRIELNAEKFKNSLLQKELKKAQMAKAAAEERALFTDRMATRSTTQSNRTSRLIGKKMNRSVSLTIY
T6 sequence (Q96SW2 whole entry): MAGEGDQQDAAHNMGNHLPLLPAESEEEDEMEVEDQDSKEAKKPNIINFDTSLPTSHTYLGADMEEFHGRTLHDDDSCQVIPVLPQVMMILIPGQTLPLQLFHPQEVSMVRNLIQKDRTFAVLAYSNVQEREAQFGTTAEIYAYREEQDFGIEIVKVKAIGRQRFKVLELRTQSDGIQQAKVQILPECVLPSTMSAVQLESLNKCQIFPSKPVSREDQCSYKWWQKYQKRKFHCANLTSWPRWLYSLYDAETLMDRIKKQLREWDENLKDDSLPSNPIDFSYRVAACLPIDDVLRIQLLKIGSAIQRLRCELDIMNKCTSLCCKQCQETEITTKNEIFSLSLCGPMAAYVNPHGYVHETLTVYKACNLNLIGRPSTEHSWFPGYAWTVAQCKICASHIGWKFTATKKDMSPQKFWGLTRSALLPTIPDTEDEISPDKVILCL
T6 sequence (Q16531 whole entry partner): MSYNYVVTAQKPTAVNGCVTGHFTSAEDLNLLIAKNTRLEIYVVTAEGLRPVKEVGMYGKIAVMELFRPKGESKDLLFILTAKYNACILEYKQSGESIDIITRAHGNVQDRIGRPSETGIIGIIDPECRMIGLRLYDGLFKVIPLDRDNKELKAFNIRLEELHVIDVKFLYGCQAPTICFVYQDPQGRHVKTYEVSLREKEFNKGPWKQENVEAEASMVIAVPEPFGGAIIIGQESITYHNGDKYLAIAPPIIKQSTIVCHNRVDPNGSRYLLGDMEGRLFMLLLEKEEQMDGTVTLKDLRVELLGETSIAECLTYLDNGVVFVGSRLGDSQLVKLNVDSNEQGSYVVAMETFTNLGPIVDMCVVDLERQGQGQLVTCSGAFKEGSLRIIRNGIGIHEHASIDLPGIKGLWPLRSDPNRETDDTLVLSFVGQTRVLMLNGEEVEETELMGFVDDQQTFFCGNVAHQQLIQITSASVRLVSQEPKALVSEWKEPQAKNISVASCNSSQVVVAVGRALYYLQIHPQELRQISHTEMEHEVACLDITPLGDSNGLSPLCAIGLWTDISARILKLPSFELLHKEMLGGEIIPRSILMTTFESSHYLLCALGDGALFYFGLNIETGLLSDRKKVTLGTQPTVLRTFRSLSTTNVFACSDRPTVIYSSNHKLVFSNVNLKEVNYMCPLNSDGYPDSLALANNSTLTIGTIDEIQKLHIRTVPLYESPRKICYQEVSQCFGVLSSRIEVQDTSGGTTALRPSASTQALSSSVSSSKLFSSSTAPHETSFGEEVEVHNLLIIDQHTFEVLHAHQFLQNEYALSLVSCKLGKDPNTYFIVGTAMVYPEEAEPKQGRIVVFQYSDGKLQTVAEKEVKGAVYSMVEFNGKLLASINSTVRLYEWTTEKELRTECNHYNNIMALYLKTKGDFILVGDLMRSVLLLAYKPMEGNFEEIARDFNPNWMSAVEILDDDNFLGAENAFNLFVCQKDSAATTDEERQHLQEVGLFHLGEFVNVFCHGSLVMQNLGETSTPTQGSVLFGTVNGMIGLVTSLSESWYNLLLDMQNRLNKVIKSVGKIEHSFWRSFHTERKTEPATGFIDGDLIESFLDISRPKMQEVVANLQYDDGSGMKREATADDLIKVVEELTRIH
T4 sequence (Q13422 whole entry): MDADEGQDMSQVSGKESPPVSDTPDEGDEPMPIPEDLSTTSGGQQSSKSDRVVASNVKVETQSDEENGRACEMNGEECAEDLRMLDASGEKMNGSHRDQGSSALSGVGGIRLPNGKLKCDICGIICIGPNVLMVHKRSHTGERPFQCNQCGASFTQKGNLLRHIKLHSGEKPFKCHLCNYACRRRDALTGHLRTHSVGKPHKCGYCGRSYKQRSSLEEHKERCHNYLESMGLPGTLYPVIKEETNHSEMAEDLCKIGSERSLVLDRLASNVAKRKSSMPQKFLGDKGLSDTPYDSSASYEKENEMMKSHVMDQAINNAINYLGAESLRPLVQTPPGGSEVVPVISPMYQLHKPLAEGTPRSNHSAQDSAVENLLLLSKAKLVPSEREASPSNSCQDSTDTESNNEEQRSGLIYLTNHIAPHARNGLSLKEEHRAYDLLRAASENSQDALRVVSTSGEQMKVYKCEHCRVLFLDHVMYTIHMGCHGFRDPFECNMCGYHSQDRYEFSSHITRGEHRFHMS
T4 sequence (Q96SW2 whole entry): as the sequence (Q96SW2 whole entry) above
T4 sequence (Q16531 whole entry partner): as the sequence (Q16531 whole entry partner) above
T5 sequence (Q9UKT9 whole entry): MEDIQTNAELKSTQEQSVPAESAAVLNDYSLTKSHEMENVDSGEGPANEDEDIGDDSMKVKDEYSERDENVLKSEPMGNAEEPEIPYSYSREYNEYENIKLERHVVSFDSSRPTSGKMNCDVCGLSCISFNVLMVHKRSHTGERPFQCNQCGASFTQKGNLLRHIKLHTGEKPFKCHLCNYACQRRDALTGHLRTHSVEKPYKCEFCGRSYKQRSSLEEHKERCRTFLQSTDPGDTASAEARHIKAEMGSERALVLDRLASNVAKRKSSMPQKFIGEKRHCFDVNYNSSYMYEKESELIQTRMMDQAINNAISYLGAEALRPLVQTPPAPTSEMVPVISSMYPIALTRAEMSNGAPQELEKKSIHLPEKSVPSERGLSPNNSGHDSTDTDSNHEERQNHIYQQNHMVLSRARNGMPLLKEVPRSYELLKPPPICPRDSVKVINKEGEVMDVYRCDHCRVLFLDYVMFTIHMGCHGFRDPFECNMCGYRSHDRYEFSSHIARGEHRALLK
T5 sequence (Q96SW2 whole entry): as the sequence (Q96SW2 whole entry) above
T5 sequence (Q16531 whole entry partner): as the sequence (Q16531 whole entry partner) above
T1 sequence (Q96SW2 whole entry): as the sequence (Q96SW2 whole entry) above
T2 sequence (Q9UKS7 whole entry): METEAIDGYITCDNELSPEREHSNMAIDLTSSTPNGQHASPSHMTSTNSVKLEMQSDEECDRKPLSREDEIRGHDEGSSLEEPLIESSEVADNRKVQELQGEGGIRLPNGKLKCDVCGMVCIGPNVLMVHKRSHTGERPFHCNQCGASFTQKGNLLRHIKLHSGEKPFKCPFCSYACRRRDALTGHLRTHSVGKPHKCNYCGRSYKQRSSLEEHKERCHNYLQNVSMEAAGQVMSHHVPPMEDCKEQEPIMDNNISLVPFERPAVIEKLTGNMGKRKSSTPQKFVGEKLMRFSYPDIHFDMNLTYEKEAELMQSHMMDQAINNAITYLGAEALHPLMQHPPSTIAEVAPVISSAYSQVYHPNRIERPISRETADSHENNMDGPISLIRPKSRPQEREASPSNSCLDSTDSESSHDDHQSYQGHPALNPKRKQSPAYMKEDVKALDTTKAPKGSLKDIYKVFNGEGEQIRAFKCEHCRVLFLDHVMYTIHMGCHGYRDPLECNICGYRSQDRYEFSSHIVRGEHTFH
T2 sequence (Q96SW2 whole entry): as the sequence (Q96SW2 whole entry) above
T2 sequence (Q16531 whole entry partner): as the sequence (Q16531 whole entry partner) above
T3 sequence (P48729 whole entry): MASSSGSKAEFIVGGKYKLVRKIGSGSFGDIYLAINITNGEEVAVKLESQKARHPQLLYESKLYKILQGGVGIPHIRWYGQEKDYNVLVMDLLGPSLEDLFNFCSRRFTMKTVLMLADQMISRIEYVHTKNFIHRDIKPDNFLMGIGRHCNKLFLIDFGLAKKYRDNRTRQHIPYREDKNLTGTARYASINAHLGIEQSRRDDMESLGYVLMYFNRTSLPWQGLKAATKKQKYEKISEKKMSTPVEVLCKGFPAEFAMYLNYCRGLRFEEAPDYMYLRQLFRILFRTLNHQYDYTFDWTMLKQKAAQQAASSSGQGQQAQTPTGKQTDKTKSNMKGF
T3 sequence (Q96SW2 whole entry): as the sequence (Q96SW2 whole entry) above
T3 sequence (Q16531 whole entry partner): as the sequence (Q16531 whole entry partner) above

Structure (SMILES) | inhibition at 0.5 µM [2] [%] | inhibition at 2 µM [2] [%] | inhibition at 0.01 µM [1] [%] | inhibition at 0.5 µM [1] [%] | Inhibition Rate at 500 nM (%) ([1]; MM.1S, 500 nM, 96 hours) | IKZF2 substrate protein remaining % [3] | CK1α substrate protein remaining % [4] | IKZF 1 substrate protein remaining % [5] | IKZF3 substrate protein remaining % [6] | Wee1 substrate protein remaining % [7] | GSPT1 substrate protein remaining % [8]
O=C1CCC(N2Cc3c(CN4CC=C(c5ncc6ccsc6n5)CC4)cccc3C2=S)C(=O)N1 (stereo not shown) [GT-08965, 3-(4-((4-(thieno[2,3-d]pyrimidin-2-yl)-3,6-dihydropyridin-1(2H)-yl)methyl)-1-thioxoisoindolin-2-yl)piperidine-2,6-dione] | 80 to 100 | 80 to 100 | 30 to 40 | 40 to 50 |  |  |  |  |  |  | 
O=C1CCC(N2Cc3cc(CN4CCC(C5CCOc6cc(F)ccc65)CC4)ccc3C2=S)C(=O)N1 (stereo not shown) [GT-09274, 3-(5-((4-(7-fluorochroman-4-yl)piperidin-1-yl)methyl)-1-thioxoisoindolin-2-yl)piperidine-2,6-dione] | 60 to 80 | 80 to 100 | 30 to 40 | 40 to 50 |  |  |  |  |  |  | 
O=C1CCC(N2Cc3cc(CN4CCN(c5ncnc6sc(-c7ccccc7)cc56)CC4)ccc3C2=S)C(=O)N1 (stereo not shown) [GT-09296, 3-(5-((4-(6-phenylthieno[2,3-d]pyrimidin-4-yl)piperazin-1-yl)methyl)-1-thioxoisoindolin-2-yl)piperidine-2,6-dione] | 60 to 80 | 80 to 100 | 40 to 50 |  | la7 |  |  |  |  |  | 
O=C1CCC(N2Cc3cc(CN4CCC(c5ncc6ccsc6n5)CC4)ccc3C2=S)C(=O)N1 (stereo not shown) [GT-09313, 3-(5-((4-(thieno[2,3-d]pyrimidin-2-yl)piperidin-1-yl)methyl)-1-thioxoisoindolin-2-yl)piperidine-2,6-dione] | 60 to 80 | 80 to 100 |  |  |  | B (80%< substrate protein remaining %≤ 100%) | B (80%< substrate protein remaining %≤ 100%) | A (0% ≤ substrate protein remaining % ≤ 80%) | B (80%< substrate protein remaining %≤ 100%) | B (80%< substrate protein remaining %≤ 100%) | A (0% ≤ substrate protein remaining % ≤ 80%)
Cc1csc2ncnc(C3=CCN(Cc4ccc5c(c4)CN(C4CCC(=O)NC4=O)C5=S)CC3)c12 (stereo not shown) [GT-09315, 3-(5-((4-(5-methylthieno[2,3-d]pyrimidin-4-yl)-3,6-dihydropyridin-1(2H)-yl)methyl)-1-thioxoisoindolin-2-yl)piperidine-2,6-dione] | 60 to 80 | 80 to 100 |  |  |  | B (80%< substrate protein remaining %≤ 100%) | B (80%< substrate protein remaining %≤ 100%) | A (0% ≤ substrate protein remaining % ≤ 80%) | A (0% ≤ substrate protein remaining % ≤ 80%) | B (80%< substrate protein remaining %≤ 100%) | A (0% ≤ substrate protein remaining % ≤ 80%)
O=C1CCC(N2Cc3cc(CN4CC=C(c5ncnc6scc(-c7ccccc7)c56)CC4)ccc3C2=S)C(=O)N1 (stereo not shown) [GT-09320, 3-(5-((4-(5-phenylthieno[2,3-d]pyrimidin-4-yl)-3,6-dihydropyridin-1(2H)-yl)methyl)-1-thioxoisoindolin-2-yl)piperidine-2,6-dione] | 60 to 80 | 80 to 100 |  |  |  | B (80%< substrate protein remaining %≤ 100%) | B (80%< substrate protein remaining %≤ 100%) | B (80%< substrate protein remaining %≤ 100%) | B (80%< substrate protein remaining %≤ 100%) | A (0% ≤ substrate protein remaining % ≤ 80%) | A (0% ≤ substrate protein remaining % ≤ 80%)

Further lines, with some results ahead:

inhibition at 0.5 µM [2] [%] | inhibition at 2 µM [2] [%] | Structure (SMILES) | inhibition at 0.01 µM [1] [%] | inhibition at 0.5 µM [1] [%] | Inhibition Rate at 500 nM (%) ([1]; MM.1S, 500 nM, 96 hours) | IKZF2 substrate protein remaining % [3] | CK1α substrate protein remaining % [4] | IKZF 1 substrate protein remaining % [5] | IKZF3 substrate protein remaining % [6] | Wee1 substrate protein remaining % [7] | GSPT1 substrate protein remaining % [8]
53 to 60 | 80 to 100 | Cc1nc(C2=CCN(Cc3ccc4c(c3)CN(C3CCC(=O)NC3=O)C4=S)CC2)c2c(-c3ccccc3)csc2n1 (stereo not shown) [GT-09321, 3-(5-((4-(2-methyl-5-phenylthieno[2,3-d]pyrimidin-4-yl)-3,6-dihydropyridin-1(2H)-yl)methyl)-1-thioxoisoindolin-2-yl)piperidine-2,6-dione] |  |  |  | B (80%< substrate protein remaining %≤ 100%) | B (80%< substrate protein remaining %≤ 100%) | B (80%< substrate protein remaining %≤ 100%) | B (80%< substrate protein remaining %≤ 100%) | A (0% ≤ substrate protein remaining % ≤ 80%) | A (0% ≤ substrate protein remaining % ≤ 80%)
53 to 60 | 80 to 100 | Cc1nc(C2=CCN(Cc3ccc4c(c3)CN(C3CCC(=O)NC3=O)C4=S)CC2)c2c3c(sc2n1)CCC3 (stereo not shown) [GT-09326, 3-(5-((4-(2-methyl-6,7-dihydro-5H-cyclopenta[4,5]thieno[2,3-d]pyrimidin-4-yl)-3,6-dihydropyridin-1(2H)-yl)methyl)-1-thioxoisoindolin-2-yl)piperidine-2,6-dione] |  |  |  | B (80%< substrate protein remaining %≤ 100%) | B (80%< substrate protein remaining %≤ 100%) | B (80%< substrate protein remaining %≤ 100%) | B (80%< substrate protein remaining %≤ 100%) | A (0% ≤ substrate protein remaining % ≤ 80%) | A (0% ≤ substrate protein remaining % ≤ 80%)
53 to 60 | 80 to 100 | O=C1CCC(N2Cc3cc(CN4CCN(c5nc(Cl)nc6c5SCC6)CC4)ccc3C2=S)C(=O)N1 (stereo not shown) [GT-09328, 3-(5-((4-(2-chloro-6,7-dihydrothieno[3,2-d]pyrimidin-4-yl)piperazin-1-yl)methyl)-1-thioxoisoindolin-2-yl)piperidine-2,6-dione] |  |  |  | A (0% ≤ substrate protein remaining % ≤ 80%) | B (80%< substrate protein remaining %≤ 100%) | B (80%< substrate protein remaining %≤ 100%) | B (80%< substrate protein remaining %≤ 100%) | B (80%< substrate protein remaining %≤ 100%) | B (80%< substrate protein remaining %≤ 100%)
60 to 80 | 80 to 100 | O=C1CCC(N2Cc3cc(CN4CCN(c5nc(N6CCOCC6)nc6ccsc56)CC4)ccc3C2=S)C(=O)N1 (stereo not shown) [GT-09333, 3-(5-((4-(2-morpholinothieno[3,2-d]pyrimidin-4-yl)piperazin-1-yl)methyl)-1-thioxoisoindolin-2-yl)piperidine-2,6-dione] |  |  |  | B (80%< substrate protein remaining %≤ 100%) | B (80%< substrate protein remaining %≤ 100%) | A (0% ≤ substrate protein remaining % ≤ 80%) | A (0% ≤ substrate protein remaining % ≤ 80%) | B (80%< substrate protein remaining %≤ 100%) | A (0% ≤ substrate protein remaining % ≤ 80%)
60 to 80 | 80 to 100 | O=C1CCC(N2Cc3cc(CN4CCN(c5nc(N6CCNCC6)c6sccc6n5)CC4)ccc3C2=S)C(=O)N1 (stereo not shown) [GT-09365, 3-(5-((4-(4-(piperazin-1-yl)thieno[3,2-d]pyrimidin-2-yl)piperazin-1-yl)methyl)-1-thioxoisoindolin-2-yl)piperidine-2,6-dione] |  |  |  | B (80%< substrate protein remaining %≤ 100%) | A (0% ≤ substrate protein remaining % ≤ 80%) | A (0% ≤ substrate protein remaining % ≤ 80%) | B (80%< substrate protein remaining %≤ 100%) | B (80%< substrate protein remaining %≤ 100%) | A (0% ≤ substrate protein remaining % ≤ 80%)
